Test results from patent US11596611B2, “Hepatitis B antiviral agents” (ENANTA PHARMACEUTICALS, INC., priority 2017, dated 2023).
Like-named read-outs stand apart in the source and are kept apart here.

How the values were obtained:
HBV = test: HepAD38 antiviral assay: reduction of viral product accumulation (virion DNA by qPCR, HBsAg or HBeAg by ELISA); format: cell-based, hepatitis B virus
Summary of the method: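 Readouts were qPCR of lysed virion DNA plus ELISA for HBsAg or HBeAg, samples diluted into linear range. HepAD38 cells, washed free of tetracycline, received compound diluted 1:200 from DMSO for 5 days; 8-day variant refreshed media and compound on days 2 and 5.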

[1] = Compound toxicity by ATPLite (total ATP levels); format: cell-based; details: human, three days after compound addition, 50% reduction of total ATP
Method: Methods: HepAD38 cells are maintained as previously reported (Ladner et al, Antimicrob. Agents Chemother. 1997, […], 1715). Briefly, cells are passaged upon attaining confluency in DMEM/F12 media in the presence of 10% FBS, Penn/Strep, 250 μg/mL G418, and 1 ug/ml tetracycline. Novel compounds are screened by first washing cells three times with PBS to remove tetracycline, and plating in 96 well plates at 35,000 cells/well. Compounds dissolved in DMSO are then diluted 1:200 into wells containing cells. Five days after compound addition, material is harvested for analysis. For an extended 8 days analysis, cells are plated and treated as described above, but media and compound are refreshed on d2 and d5 post initial treatment.
Compound toxicity is evaluated by seeding cells at 15,000 cells/well and treating with compound as described above.

[2] = Hepatitis B virus, 120 h, HepAD38 cells, five days after compound addition, 50% reduction of viral product vs no drug controls, read-out: HepAD38 EC50
[3] = Hepatitis B virus, HePAD38, 120 h, read-out: HepAD38 EC50 (μM)

## COC(C)(C)CNC(=O)C[C@]1(O)C2CCC1C[C@@H](S(=O)(=O)c1cc(C(=O)Nc3ccc(F)c(F)c3)ccc1Cl)C2 [Example 191]
HBV; [2]
  EC50: < 0.104 µM
[1]; class symbols
  CC50 at 3 days: > 25000 nM

## COCC1(NC(=O)C[C@]2(O)C3CCC2C[C@@H](S(=O)(=O)c2cc(C(=O)Nc4cc(F)c(F)c(F)c4)ccc2Cl)C3)CC1 [Example 116]
HBV; [2]
  EC50: < 0.104 µM
[1]; numeric bounds
  CC50 at 3 days: > 3000 nM

## CC(CO)NC(=O)C[C@]1(O)C2CCC1C[C@@H](S(=O)(=O)c1cc(C(=O)Nc3cc(F)c(F)c(F)c3)ccc1Cl)C2 (some centres unmarked) [Example 55]
HBV; [2]
  EC50: < 0.104 µM
[1]; class symbols
  CC50 at 3 days: > 25000 nM

## CC(O)C[C@@]1(O)C2CC[C@H]1C[C@H](S(=O)(=O)c1cc(C(=O)Nc3ccc(F)c(F)c3)ccc1Cl)C2 (some centres unmarked) [Example 218]
HBV; [2]
  EC50: < 0.104 µM
[1]; class symbols
  CC50 at 3 days: 10000 to 25000 nM

## O=C(C[C@]1(O)C2CCC1C[C@@H](S(=O)(=O)c1cc(C(=O)Nc3cc(F)c(F)c(F)c3)ccc1Cl)C2)N[C@H]1CCOC1 [Example 72]
HBV; [2]
  EC50: < 0.104 µM
[1]; numeric bounds
  CC50 at 3 days: > 3000 nM

## C[C@@H](O)[C@@H](O)[C@]1(O)C2CCC1C[C@@H](S(=O)(=O)c1cc(C(=O)Nc3ccc(F)c(F)c3)ccc1Cl)C2 (single isomer, unassigned) [Example 180]
HBV; [2]
  EC50: < 0.104 µM
[1]; class symbols
  CC50 at 3 days: > 25000 nM

## COC[C@@H](O)COC[C@]1(O)C2CCC1C[C@@H](S(=O)(=O)c1cc(C(=O)Nc3cc(F)c(F)c(F)c3)ccc1Cl)C2 [Example 122]
HBV; [2]
  EC50: < 0.104 µM
[1]; class symbols
  CC50 at 3 days: > 25000 nM

## O=C(C[C@]1(O)C2CCC1C[C@@H](S(=O)(=O)c1cc(C(=O)Nc3ccc(F)c(F)c3)ccc1Cl)C2)NC1CC(O)C1 (some centres unmarked) [Example 192]
HBV; [2]
  EC50: < 0.104 µM
[1]; numeric bounds
  CC50 at 3 days: > 12500 nM

## [2H]C1([2H])C2CCC(C([2H])([2H])[C@]1([2H])S(=O)(=O)c1cc(C(=O)Nc3ccc(F)c(F)c3)ccc1Cl)[C@@]2(O)CO [Example 279]
HBV; [2]
  EC50: < 0.104 µM
[1]; class symbols
  CC50 at 3 days: > 25000 nM

## O=C(Nc1ccc(F)c(F)c1)c1ccc(Cl)c(S(=O)(=O)[C@@H]2CC3CC[C@@H](C2)[C@@]3(O)C(O)c2nccs2)c1 (some centres unmarked) [Example 302]
HBV; [2]
  EC50: < 0.104 µM
[1]; class symbols
  CC50 at 3 days: > 25000 nM

## O=C(Nc1cc(F)c(F)c(F)c1)c1ccc(Cl)c(S(=O)(=O)[C@H]2CC3CCC(C2)[C@]3(O)COCCO)c1 [Example 62]
HBV; [2]
  EC50: < 0.104 µM
[1]; numeric bounds
  CC50 at 3 days: > 12500 nM

## Cc1cc(Cl)c(S(=O)(=O)[C@H]2CC3CCC(C2)[C@]3(O)[C@H](O)[C@H](C)O)cc1C(=O)Nc1ccc(F)c(F)c1 [Example 335]
HBV; [2]
  EC50: < 0.104 µM
[1]; class symbols
  CC50 at 3 days: > 25000 nM

## O=C(Nc1ccc(F)c(F)c1)c1ccc(Cl)c(S(=O)(=O)[C@H]2CC3CCC(C2)[C@]3(O)CNC(=O)c2ncco2)c1 [Example 167]
HBV; [2]
  EC50: < 0.104 µM
[1]; numeric bounds
  CC50 at 3 days: > 12500 nM

## O=C(Nc1ccc(F)c(F)c1)c1ccc(Cl)c(S(=O)(=O)[C@H]2CC3CCC(C2)[C@]3(O)[C@@H](O)c2cccnc2)c1 (single isomer, unassigned) [Example 285a]
HBV; [2]
  EC50: < 0.104 µM
[1]; class symbols
  CC50 at 3 days: > 25000 nM

## O=C(Nc1ccc(F)c(F)c1)c1ccc(Cl)c(S(=O)(=O)[C@H]2CC3CCC(C2)[C@]3(O)C(O)c2ccncc2)c1 (some centres unmarked) [Example 286]
HBV; [2]
  EC50: 0.1 to 0.2 µM

## CC(C)(O)/C=C\[C@]1(O)C2CCC1C[C@@H](S(=O)(=O)c1cc(C(=O)Nc3cc(F)c(F)c(F)c3)ccc1Cl)C2 [Example 21]
HBV; [2]
  EC50: < 0.104 µM

## C[C@]1(O)C2CCC1C[C@@H](S(=O)(=O)c1cc(C(=O)Nc3ccc(F)c(F)c3)c(-c3ccccn3)cc1Cl)C2 [Example 133]
HBV; [2]
  EC50: > 0.2 µM

## O=C(Nc1cc(F)c(F)c(F)c1)c1ccc(Cl)c(S(=O)(=O)[C@H]2CC3CCC(C2)[C@]3(O)[C@H](O)[C@@H](O)CO)c1 [Example 51]
HBV; HepAD38 cells, five days after compound addition, 50% reduction of viral product vs no drug controls, read-out: HepAD38 EC50
  EC50: < 0.104 µM

## O=C(Nc1ccc(F)c(F)c1)c1ccc(Cl)c(S(=O)(=O)[C@H]2CC3CCC(C2)[C@]3(O)[C@@H](O)c2ccccn2)c1 (single isomer, unassigned) [Example 284a]
HBV; [2]
  EC50: < 0.104 µM

## C[C@]1(O)C2CCC1C[C@@H](S(=O)(=O)c1cc(C(=O)Nc3ccc(F)c(F)c3)c(Br)cc1Cl)C2 [Example 100]
HBV; [2]
  EC50: < 0.104 µM

## CS(=O)(=O)NCC(O)[C@]1(O)C2CCC1C[C@@H](S(=O)(=O)c1cc(C(=O)Nc3cc(F)c(F)c(F)c3)ccc1Cl)C2 (some centres unmarked) [Example 26]
HBV; [2]
  EC50: < 0.104 µM

## O=C(Nc1cc(F)c(F)c(F)c1)c1ccc(Cl)c(S(=O)(=O)[C@H]2CC3CCC(C2)[C@]3(O)CNC(=O)C2CCC(O)C(O)C2)c1 (single isomer, unassigned) [Example 19]
HBV; [2]
  EC50: > 0.2 µM

## O=C(Nc1ccc(F)c(F)c1)c1ccc(Cl)c(S(=O)(=O)[C@H]2CC3CCC(C2)[C@@]3(O)C(O)CN2CCCS2(=O)=O)c1 (some centres unmarked) [Example 309]
HBV; [2]
  EC50: 0.1 to 0.2 µM

## O=C[C@]1(O)C2CCC1C[C@@H](S(=O)(=O)c1cc(C(=O)Nc3ccc(F)c(F)c3)ccc1Cl)C2 [Example 203]
HBV; [2]
  EC50: < 0.104 µM

## COC[C@]1(O)C2CCC1C[C@@H](S(=O)(=O)c1cc(C(=O)Nc3cc(F)c(F)c(F)c3)ccc1Cl)C2 [Example 123]
HBV; [2]
  EC50: < 0.104 µM

## O=C(Nc1ccc(F)c(F)c1)c1ccc(Cl)c(S(=O)(=O)[C@H]2CC3CCC(C2)[C@]3(O)[C@@H](O)CO)c1 (single isomer, unassigned) [Example 175]
HBV; [2]
  EC50: < 0.104 µM

## C[C@]1(O)C2CCC1C[C@@H](S(=O)(=O)c1cccc(C(=O)Nc3cc(F)c(F)c(F)c3)c1)C2 [Example 37]
HBV; [2]
  EC50: 0.1 to 0.2 µM

## CC(C)(O)CC(=O)NC[C@]1(O)C2CCC1C[C@@H](S(=O)(=O)c1cc(C(=O)Nc3ccc(F)c(F)c3)ccc1Cl)C2 [Example 170]
HBV; [2]
  EC50: < 0.104 µM

## O=C(Nc1ccc(F)c(F)c1)c1ccc(Cl)c(S(=O)(=O)[C@H]2CC3CCC(C2)[C@]3(O)C(O)c2ccccn2)c1 (some centres unmarked) [Example 284]
HBV; [2]
  EC50: < 0.104 µM

## O=C(Nc1ccc(F)c(F)c1)c1ccc(Cl)c(S(=O)(=O)[C@@H]2CC3C[C@H](O)C(C2)[C@@]3(O)CO)c1 (some centres unmarked) [Example 327]
HBV; [2]
  EC50: 0.1 to 0.2 µM

## O=C(Nc1ccc(F)c(F)c1)c1ccc(Cl)c(S(=O)(=O)[C@@H]2CC3CC[C@@H](C2)[C@@]3(O)C(O)c2cccc(C(F)F)n2)c1 (some centres unmarked) [Example 350]
HBV; [2]
  EC50: < 0.104 µM

## CC(O)[C@]1(O)CC2CC[C@@H](C1)[C@H]2S(=O)(=O)c1cc(C(=O)Nc2ccc(F)c(F)c2)ccc1Cl (mixture of isomers) [Example 7]
HBV; [2]
  EC50: < 0.104 µM

## CC1(C)OC[C@H](CN2C3CCC2CC(S(=O)(=O)c2cc(C(=O)Nc4cc(F)c(F)c(F)c4)ccc2Cl)C3)O1 (single isomer, unassigned) [Example 144]
HBV; [3]
  EC50: 0.1 to 0.2 µM

## COC(=O)NCCC(=O)N1C2CCC1CC(S(=O)(=O)c1cc(C(=O)Nc3cc(F)c(F)c(F)c3)ccc1Cl)C2 (centres unmarked) [Example 147]
HBV; [2]
  EC50: < 0.104 µM

## COC(=O)N[C@@H](C)C(=O)N1C2CCC1CC(S(=O)(=O)c1cc(C(=O)Nc3cc(F)c(F)c(F)c3)ccc1Cl)C2 (single isomer, unassigned) [Example 141]
HBV; [3]
  EC50: 0.1 to 0.2 µM

## Cc1ccc(NC(=O)c2ccc(Cl)c(S(=O)(=O)[C@H]3CC4CCC(C3)[C@@]4(C)O)c2)cc1F [Example 44]
HBV; [2]
  EC50: > 0.2 µM

## O=C(Nc1ccc(F)c(F)c1)c1ccc(Cl)c(S(=O)(=O)[C@@H]2CC3CC[C@@H](C2)[C@@]3(O)C(O)c2ccc3ccccc3n2)c1 (some centres unmarked) [Example 301]
HBV; [2]
  EC50: < 0.104 µM

## CC(C)c1cc(NC(=O)c2ccc(Cl)c(S(=O)(=O)[C@H]3CC4CCC(C3)[C@@]4(C)O)c2)ccc1F [Example 43]
HBV; [2]
  EC50: > 0.2 µM

## COC(=O)N[C@@H](Cc1ccccc1)C(=O)N1C2CCC1CC(S(=O)(=O)c1cc(C(=O)Nc3cc(F)c(F)c(F)c3)ccc1Cl)C2 (some centres unmarked) [Example 154]
HBV; [2]
  EC50: > 0.2 µM

## CC(=O)C(=O)[C@@]1(O)C2CC[C@H]1C[C@H](S(=O)(=O)c1cc(C(=O)Nc3ccc(F)c(F)c3)ccc1Cl)C2 [Example 336]
HBV; [2]
  EC50: < 0.104 µM

## C[C@]1(O)C2CCC1C[C@@H](S(=O)(=O)c1cc(C(=O)Nc3ccc(Cl)c(F)c3)ccc1Cl)C2 [Example 46]
HBV; [2]
  EC50: > 0.2 µM

## COCCOC[C@]1(O)C2CCC1C[C@@H](S(=O)(=O)c1cc(C(=O)Nc3cc(F)c(F)c(F)c3)ccc1Cl)C2 [Example 98]
HBV; [2]
  EC50: < 0.104 µM

## O=C(Nc1ccc(F)c(F)c1)c1ccc(Cl)c(S(=O)(=O)[C@H]2CC3CCC(C2)[C@]3(O)C(O)c2ccc(F)c[n+]2[O-])c1 (some centres unmarked) [Example 292]
HBV; [2]
  EC50: > 0.2 µM

## O=C(Nc1cc(F)c(F)c(F)c1)c1ccc(Cl)c(S(=O)(=O)[C@H]2CC3CCC(C2)[C@]3(O)CNC(=O)C2CC=CCC2)c1 (some centres unmarked) [Example 18]
HBV; [2]
  EC50: < 0.104 µM

## Cn1cc(C(O)C(O)[C@]2(O)C3CCC2C[C@@H](S(=O)(=O)c2cc(C(=O)Nc4ccc(F)c(F)c4)ccc2Cl)C3)cn1 (some centres unmarked) [Example 322]
HBV; [2]
  EC50: < 0.104 µM
